Data set [1] is described as follows: Caco-2 cell permeability study. Format: in vitro ADME. The note with it: human; for efflux ratio at 2 h, 5 µM: Caco-2, pH 7.4; for recovery at 2 h, 5 μM: Caco-2, pH 7.4, Caco-2, 5 μM; for Papp A→B at 2 h, 5 µM / Papp B→A at 2 h, 5 µM: pH 7.4, Caco-2, 5 μM; for Papp A→B at 2 h, 5 µM: apical to basolateral; for Papp B→A at 2 h, 5 µM: basolateral to apical. The source says: One of the physicochemical quantities that mirrors the interaction of a compound with the cell membrane is permeability. Traditionally, measuring permeability with the PAMPA model provides estimates of passive permeability across a model membrane. […] Therefore, we measure the cell permeability of the six compounds using Caco-2 cells, so that the apical to basolateral (A to B) and basolateral to apical (B to A) permeabilities, and thereby the efflux ratio, can be determined. Three commercial drugs (Table 2) are used as standard compounds to establish and validate our in-house assay.
For Caco-2 cells (originally obtained from the American Type Culture Collection; ATCC, Manassas, VA, USA), 50 μL and […] of cell culture medium are added to each well of the Transwell insert and reservoir, respectively. And then the HTS transwell plates are incubated at 37 °C, 5% CO2 for 1 h before cell seeding. Caco-2 cells are diluted to 6.86 × 10^5 cells/mL with culture medium and 50 μL of cell suspension is dispensed into the filter well of the 96-well HTS Transwell plate. Cells are cultivated for 14–18 days in a cell culture incubator at 37 °C, 5% CO2, 95% relative humidity. Cell culture medium is replaced every other day, beginning no later than 24 h after initial plating. Stock solutions of the test compounds are prepared at a concentration of 10 mM in DMSO. […] Detailed assay procedures are provided in the SI. […]
dilution factor is changed according to the log D value and the LC-MS signal response. The samples are evaluated by LC-MS/MS analysis. All experiments are performed in duplicates.
5. Caco-2 Cell Permeability Assay
The Caco-2 plate is removed from the incubator and washed twice with pre-warmed HBSS (10 mM HEPES, pH 7.4), and then incubated at 37 °C for 30 minutes. The stock solutions of control compounds and test compounds are diluted in DMSO to get 1 mM solutions and then diluted with HBSS (10 mM HEPES, pH 7.4) get 5 μM working solutions. The final concentration of DMSO in the incubation system is 0.5%. To determine the rate of drug transport in the apical to basolateral direction. 125 μL of 5 μM working solution of control compounds and test compounds are added to the Transwell insert (apical compartment), and transfer 50 μL sample (D0 sample) immediately from the apical compartment to a new 96-well plate. Fill the wells in the receiver plate (basolateral compartment) with 235 μL of HBSS (10 mM HEPES, pH 7.4). To determine the rate of drug transport in the basolateral to apical direction. 285 μL of 5 μM working solution of control compounds and test compounds are to the receiver plate wells (basolateral compartment), and transfer 50 μL sample (D0 sample) immediately from the basolateral compartment to a new 96-well plate.
Fill the wells in the Transwell insert (apical compartment) with 75 μL of HBSS (10 mM HEPES, pH 7.4).
The assay is performed in duplicate. The plates are incubated at 37 °C for 2 h. At the end of the incubation, 50 μL samples from donor sides (apical compartment for Ap→Bl flux, and basolateral compartment for Bl→Ap) and receiver sides (basolateral compartment for Ap→Bl flux, and apical compartment for Bl→Ap) are transferred to wells of a new 96-well plate, followed by the addition of 4 volume of cold acetonitrile containing appropriate internal standards (IS). Samples are Vortexed for 5 minutes and then centrifuged at 3,220 g for 30 minutes. An aliquot of 100 µL of the supernatant is mixed with an appropriate volume of ultra-pure water before LC-MS/MS analysis (see SI Bioanalytical Method for Caco-2 Cell Permeability […]
Papp (A to B) is greater than the Papp (A to B) of minoxidil it is assigned as high permeability. If the Papp (A to B) is […]

Another data set has as its system PANC-1 cells. The data set is described as follows: CCK-8 antiproliferative assay, PANC-1. As to conditions: Homo sapiens, CCK-8, 72 h, mean of three independent experiments. The class given is cell-based. As to the method: The inhibitory activities against human pancreatic cancer PANC-1 cells of the synthesized compounds were evaluated by CCK-8 assay.
Human pancreatic cancer cell lines PANC-1, PATU8988T and BxPC3 were purchased from the Cancer Institute & Hospital of the Chinese Academy of Medical Sciences (Shanghai, China). All three cell lines were cultured in RPMI-DMEM medium containing 10% fetal bovine serum, cultured at a constant temperature of 37 °C in a humidified incubator with 5% CO2.
Pancreatic cancer cells are seeded into 96-well plates. After a proliferation time of 16 h, different concentrations of compounds are added into the corresponding wells and incubated for 72 h. 10 μL of CCK-8 solution is added into each well and incubated for 1–4 h at 37 °C. Shake the plates and read the OD value of each well at 450 nm on a microplate reader.
(In general: Tetrazolium assays rely on reduction of a dye to a coloured formazan, in cell work by metabolically active cells.)

The mark [2] stands for this setting: read-out: Mean % Solution Recovery A to B.
Setting [3] is: read-out: Mean % Solution Recovery B to A.

Where two headings read alike, the source gives them in different places.

The term efflux ratio denotes the permeability from basolateral to apical divided by that in the opposite direction, in the common usage. The Papp A→B is how fast a substance crosses the layer from the apical side. Low readings indicate poor permeation, high ones ready permeation. Usually Papp B→A stands for the apparent permeability from the basolateral to the apical side of a cell layer. Usually IC50 stands for the concentration at which inhibition is half-maximal. A higher IC50 goes with weaker potency. For `C[C@@H]1C(=O)[C@](C)(O)C(=O)NCC(=O)N[C@H](CN2CCN(C)CC2)/C=C/C(=O)N(C)CC(=O)O[C@H]1CCCCCc1cn(CCCCCCCNc2cccc3c2CN(C2CCC(=O)NC2=O)C3=O)nn1` (stereo partly shown) [Compound 40], in data set [1], the efflux ratio at 2 h, 5 µM was > 10.8; the Papp A→B at 2 h, 5 µM is < 0.0116 ×10⁻⁶ cm/s; the Papp B→A at 2 h, 5 µM is 0.13 ×10⁻⁶ cm/s. Besides, in data set [1] (setting [2]), the recovery at 2 h, 5 μM was < 89.4%. In addition, the recovery at 2 h, 5 μM in data set [1] (setting [3]) is 50.4%. Further, the half-maximal inhibitory concentration (IC50) in the data set with PANC-1 cells is > 100 µM.

As for `CCCCOc1ccc(-c2ccc(-c3ccc(Cn4cc(CCCCC[C@H]5OC(=O)CN(C)C(=O)/C=C/[C@@H](CN6CCN(C)CC6)NC(=O)CNC(=O)[C@@](C)(O)C(=O)[C@H]5C)nn4)cc3)cc2)cc1` [Compound 29], the recovery at 2 h, 5 μM in data set [1] (setting [2]) was < 92.9%; in data set [1] (setting [3]), < 71.1%. The Papp A→B at 2 h, 5 µM in data set [1] was < 0.00798 ×10⁻⁶ cm/s. Besides, the Papp B→A at 2 h, 5 µM in data set [1] was < 0.00266 ×10⁻⁶ cm/s. The IC50 in the data set with PANC-1 cells is > 100 µM.

`CC1C(=O)C(C)(O)C(=O)NCC(=O)NC(CN2CCN(C)CC2)C=CC(=O)N(C)CC(=O)OC1CCCCc1cn(CCCCCCCCNC(=N)N)nn1` (stereo not shown) [Compound 31]: in data set [1], the efflux ratio at 2 h, 5 µM came out at 2.57; the Papp A→B at 2 h, 5 µM was 0.0348 ×10⁻⁶ cm/s; the basolateral-to-apical permeability (Papp B→A) at 2 h, 5 µM was determined as 0.0894 ×10⁻⁶ cm/s. Further, the recovery at 2 h, 5 μM in data set [1] (setting [2]) came out at 109%. In addition, in data set [1] (setting [3]), the recovery at 2 h, 5 μM was found to be 70.4%. Further, in the data set with PANC-1 cells, the IC50 is > 100 µM.

With `CCCCCCCCCCCCCC1OC(=O)CN(C)C(=O)C=CC(CN2CCN(C)CC2)NC(=O)CNC(=O)C(C)(O)C(=O)C1C` (stereo not shown) [BE-NMP], in data set [1], the efflux ratio at 2 h, 5 µM is > 65.3; the apparent permeability from apical to basolateral (Papp A→B) at 2 h, 5 µM was < 0.0144 ×10⁻⁶ cm/s; the basolateral-to-apical permeability (Papp B→A) at 2 h, 5 µM stood at 0.942 ×10⁻⁶ cm/s. In addition, the recovery at 2 h, 5 μM in data set [1] (setting [2]) is < 23.5%. Moreover, the recovery at 2 h, 5 μM in data set [1] (setting [3]) worked out at 8.99%.

Source of the values: paper PMC12843137, “Fine-Tuning Side Chain Substitutions: Impacts on the Lipophilicity–Solubility–Permeability Interplay in Macrocyclic Peptides” (Marine Drugs, 2025).
